Assay results published in PMC7904915, “Discovery of exolytic heparinases and their catalytic mechanism and potential application” (Nature Communications, 2021).

Assays:
Assay type in all cases: biochemical
[1] = target: T1, BIexoHep (Bacteroides intestinalis, UniProt B3C5J6); test: tetrasaccharide digestion, 2-AB labelling, anion-exchange HPLC; settings: exolytic beta-elimination; 5 pmol substrate
T1 construct: gene BACINT_00178; pET-30a(+), His-purified from E. coli BL21(DE3); crystal residues 24-864, monomer, two Ca2+
T1 sequence (B3C5J6 24-868): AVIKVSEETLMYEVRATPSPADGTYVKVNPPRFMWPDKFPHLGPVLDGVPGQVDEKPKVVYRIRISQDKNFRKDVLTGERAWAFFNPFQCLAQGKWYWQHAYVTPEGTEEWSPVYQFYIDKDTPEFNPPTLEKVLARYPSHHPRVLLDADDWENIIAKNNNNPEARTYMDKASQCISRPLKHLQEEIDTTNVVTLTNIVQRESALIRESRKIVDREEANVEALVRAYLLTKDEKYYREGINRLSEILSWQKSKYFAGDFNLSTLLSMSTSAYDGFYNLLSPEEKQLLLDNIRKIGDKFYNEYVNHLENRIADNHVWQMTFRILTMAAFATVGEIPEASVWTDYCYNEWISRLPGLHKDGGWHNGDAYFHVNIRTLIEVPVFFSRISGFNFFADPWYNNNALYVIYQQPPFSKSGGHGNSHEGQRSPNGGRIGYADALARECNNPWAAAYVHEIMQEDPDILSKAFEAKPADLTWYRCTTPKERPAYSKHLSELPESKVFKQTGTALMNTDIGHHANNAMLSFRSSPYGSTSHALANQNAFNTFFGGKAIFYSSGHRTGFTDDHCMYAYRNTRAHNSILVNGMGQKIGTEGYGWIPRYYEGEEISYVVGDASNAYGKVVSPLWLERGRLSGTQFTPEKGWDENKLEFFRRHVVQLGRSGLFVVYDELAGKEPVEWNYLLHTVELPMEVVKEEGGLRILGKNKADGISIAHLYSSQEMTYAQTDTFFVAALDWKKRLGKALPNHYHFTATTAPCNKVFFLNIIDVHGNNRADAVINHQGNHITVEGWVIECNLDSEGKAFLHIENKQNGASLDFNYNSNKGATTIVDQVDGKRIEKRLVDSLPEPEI

[2] = target: T2, BCexoHep (Bacteroides cellulosilyticus, UniProt A0A0P0GDH6); test: digestion, anion-exchange HPLC at […] nm; settings: 5 μg fondaparinux; cleaved to ΔUA2S(1-4)GlcNS6S(OCH3) only
T2 construct: gene hepB; synthetic gene, expressed in E. coli BL21(DE3) and purified as BIexoHep
T2 sequence (A0A0P0GDH6 18-868): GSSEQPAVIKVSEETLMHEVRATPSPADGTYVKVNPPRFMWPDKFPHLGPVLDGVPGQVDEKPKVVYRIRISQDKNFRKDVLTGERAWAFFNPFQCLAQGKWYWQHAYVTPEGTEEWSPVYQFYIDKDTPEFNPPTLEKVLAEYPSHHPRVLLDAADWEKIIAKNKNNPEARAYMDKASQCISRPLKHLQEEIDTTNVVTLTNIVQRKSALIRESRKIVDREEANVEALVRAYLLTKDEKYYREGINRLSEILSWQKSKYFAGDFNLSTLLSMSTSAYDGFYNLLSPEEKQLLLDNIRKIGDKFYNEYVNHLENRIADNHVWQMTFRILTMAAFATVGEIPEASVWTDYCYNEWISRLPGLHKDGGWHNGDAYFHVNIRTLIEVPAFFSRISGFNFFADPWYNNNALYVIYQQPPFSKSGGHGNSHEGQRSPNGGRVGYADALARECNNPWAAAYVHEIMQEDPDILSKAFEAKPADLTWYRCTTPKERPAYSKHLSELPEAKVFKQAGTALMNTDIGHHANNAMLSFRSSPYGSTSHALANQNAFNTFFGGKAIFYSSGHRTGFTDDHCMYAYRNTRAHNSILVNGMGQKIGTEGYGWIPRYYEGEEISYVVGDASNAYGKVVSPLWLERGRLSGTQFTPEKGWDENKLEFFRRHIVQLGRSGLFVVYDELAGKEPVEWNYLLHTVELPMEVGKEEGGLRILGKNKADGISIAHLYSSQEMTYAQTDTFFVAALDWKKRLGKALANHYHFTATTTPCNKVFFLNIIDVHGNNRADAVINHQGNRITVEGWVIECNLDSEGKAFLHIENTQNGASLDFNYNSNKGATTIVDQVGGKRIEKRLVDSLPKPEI

[3] = target: T3, BTexoHep (Bacteroides thetaiotaomicron, UniProt Q89YS9); test: digestion, anion-exchange HPLC at […] nm; settings: 5 μg fondaparinux; cleaved to ΔUA2S(1-4)GlcNS6S(OCH3) only
T3 construct: gene BT_4652; synthetic gene, expressed in E. coli BL21(DE3) and purified as BIexoHep
T3 sequence (Q89YS9 22-872): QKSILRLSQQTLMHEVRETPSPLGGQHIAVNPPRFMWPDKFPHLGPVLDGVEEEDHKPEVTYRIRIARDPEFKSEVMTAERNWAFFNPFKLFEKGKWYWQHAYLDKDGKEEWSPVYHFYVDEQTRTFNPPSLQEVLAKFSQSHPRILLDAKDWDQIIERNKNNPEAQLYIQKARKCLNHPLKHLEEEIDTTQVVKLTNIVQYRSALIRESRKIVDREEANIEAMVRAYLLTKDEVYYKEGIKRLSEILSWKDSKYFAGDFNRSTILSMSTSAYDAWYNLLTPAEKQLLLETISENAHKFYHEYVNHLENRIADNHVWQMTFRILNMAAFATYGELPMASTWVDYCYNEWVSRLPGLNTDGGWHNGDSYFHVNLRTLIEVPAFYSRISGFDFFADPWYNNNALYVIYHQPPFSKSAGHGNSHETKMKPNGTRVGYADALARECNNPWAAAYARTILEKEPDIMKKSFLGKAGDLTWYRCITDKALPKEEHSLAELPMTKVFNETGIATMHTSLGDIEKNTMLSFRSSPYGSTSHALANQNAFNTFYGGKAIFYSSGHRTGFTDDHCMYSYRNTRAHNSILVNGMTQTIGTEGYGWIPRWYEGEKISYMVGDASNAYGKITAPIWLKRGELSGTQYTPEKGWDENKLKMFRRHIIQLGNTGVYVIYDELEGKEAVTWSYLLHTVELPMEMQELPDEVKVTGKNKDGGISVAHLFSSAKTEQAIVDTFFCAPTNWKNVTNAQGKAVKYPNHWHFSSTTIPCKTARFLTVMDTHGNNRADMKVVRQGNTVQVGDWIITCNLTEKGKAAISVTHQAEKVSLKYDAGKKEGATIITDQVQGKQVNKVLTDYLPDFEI

[4] = target: T4, BFexoHep (Bacteroides finegoldii, UniProt C9L025); test: digestion, anion-exchange HPLC at […] nm; settings: […] μg fondaparinux; cleaved to ΔUA2S([…]-4)GlcNS6S(OCH3) only
T4 construct: synthetic gene, expressed in E. coli BL21(DE3) and purified as BIexoHep
T4 sequence (C9L025 24-874): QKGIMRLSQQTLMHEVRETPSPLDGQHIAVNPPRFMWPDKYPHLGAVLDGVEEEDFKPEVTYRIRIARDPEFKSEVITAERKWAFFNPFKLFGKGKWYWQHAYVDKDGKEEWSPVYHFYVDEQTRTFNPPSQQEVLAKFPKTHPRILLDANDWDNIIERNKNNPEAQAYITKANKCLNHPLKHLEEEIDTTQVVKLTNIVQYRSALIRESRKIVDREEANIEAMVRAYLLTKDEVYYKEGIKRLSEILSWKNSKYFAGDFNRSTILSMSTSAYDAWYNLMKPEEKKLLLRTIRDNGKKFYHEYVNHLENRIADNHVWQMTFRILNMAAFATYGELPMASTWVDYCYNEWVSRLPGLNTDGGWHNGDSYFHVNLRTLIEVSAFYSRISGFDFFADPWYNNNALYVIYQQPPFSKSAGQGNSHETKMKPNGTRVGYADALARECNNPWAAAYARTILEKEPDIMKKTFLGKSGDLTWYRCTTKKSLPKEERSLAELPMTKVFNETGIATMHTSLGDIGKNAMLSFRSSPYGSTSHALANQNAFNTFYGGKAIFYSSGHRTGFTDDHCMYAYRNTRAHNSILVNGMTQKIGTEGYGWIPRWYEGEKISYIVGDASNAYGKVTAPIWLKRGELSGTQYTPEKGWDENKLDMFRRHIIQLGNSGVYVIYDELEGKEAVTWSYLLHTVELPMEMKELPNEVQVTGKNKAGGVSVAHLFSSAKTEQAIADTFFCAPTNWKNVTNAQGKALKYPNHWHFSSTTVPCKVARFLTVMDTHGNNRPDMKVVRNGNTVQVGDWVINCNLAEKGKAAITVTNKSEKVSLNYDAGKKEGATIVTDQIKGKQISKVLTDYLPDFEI

Row | SMILES | tetrasaccharide digestion, 2-AB labelling, anion-exchange HPLC [1] | digestion, anion-exchange HPLC at 232 nm [2] | digestion, anion-exchange HPLC at 232 nm [3] | digestion, anion-exchange HPLC at 232 nm [4]
1 | O=C(O)C1=C[C@H](O)[C@@H](OS(=O)(=O)O)[C@H](O[C@H]2[C@H](O)[C@@H](NS(=O)(=O)O)[C@@H](O[C@H]3[C@H](O)[C@@H](O)[C@H](O[C@H]4[C@H](O)[C@@H](NS(=O)(=O)O)C(O)O[C@@H]4COS(=O)(=O)O)O[C@@H]3C(=O)O)O[C@@H]2COS(=O)(=O)O)O1 (some centres unmarked) [P4-7, ΔUA2S1-4GlcNS6S1-4GlcA1-4GlcNS6S] | all could be almost completely degraded | – | – | –
2 | O=C(O)C1=C[C@H](O)[C@@H](OS(=O)(=O)O)[C@H](O[C@H]2[C@H](O)[C@@H](NS(=O)(=O)O)[C@@H](O[C@H]3[C@H](O)[C@@H](OS(=O)(=O)O)[C@H](O[C@H]4[C@H](O)[C@@H](NS(=O)(=O)O)C(O)O[C@@H]4COS(=O)(=O)O)O[C@H]3C(=O)O)O[C@@H]2COS(=O)(=O)O)O1 (some centres unmarked) [P4-8, ΔUA2S1-4GlcNS6S1-4IdoA2S1-4GlcNS6S] | this enzyme prefers to digest highly sulfated substrates | – | – | –
3 | CO[C@H]1O[C@H](COS(=O)(=O)O)[C@@H](O[C@@H]2O[C@@H](C(=O)O)[C@@H](O[C@H]3O[C@H](COS(=O)(=O)O)[C@@H](O[C@@H]4O[C@H](C(=O)O)[C@@H](O[C@H]5O[C@H](COS(=O)(=O)O)[C@@H](O)[C@H](O)[C@H]5NS(=O)(=O)O)[C@H](O)[C@H]4O)[C@H](OS(=O)(=O)O)[C@H]3NS(=O)(=O)O)[C@H](O)[C@H]2OS(=O)(=O)O)[C@H](O)[C@H]1NS(=O)(=O)O [fondaparinux] | – | all these exoHepases can degrade the fondaparinux | all these exoHepases can degrade the fondaparinux | all these exoHepases can degrade the fondaparinux
